Where “and” joins values, the source holds several entries; their conditions need not be identical. Identical values can stand only once. Toxic doses and inconclusive results are not listed.
Tested on: P388 leukemia ip, CD2F1 mice, survival T/C
Assay: NCI In Vivo Anticancer Drug Screen. Data for tumor model P388 Leukemia (intraperitoneal) in CD2F1 (CDF1) mice
Conditions: endpoint: median survival time, higher = longer survival
How it was run: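 Mice carrying the transplanted tumor received test compound or vehicle. Survival was recorded in each group, and the value is the treated-group measurement divided by that of the vehicle-treated control group.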

[1] = dose: 50.0 mg/kg/injection, schedule: Q01DX005 (ip), vehicle: saline with Tween-80

COc1cc2c(cc1OC)C(OC)N(C)c1c-2ccc2cc3c(cc12)OCO3 (centres undefined)
T/C (dose: 2.0 mg/kg/injection, schedule: Q01DX009 (ip), vehicle: water): 122 % of control | T/C (dose: 2.0 mg/kg/injection, schedule: Q03HX008 (ip), vehicle: water): 109 % of control | T/C (dose: 4.0 mg/kg/injection, schedule: Q01DX009 (oral), vehicle: water): 104 % of control | T/C (dose: 4.0 mg/kg/injection, schedule: Q01DX009 (sc), vehicle: water): 104 % of control | T/C (dose: 4.0 mg/kg/injection, schedule: Q03HX008 (ip), vehicle: water): 122 % of control | T/C (dose: 8.0 mg/kg/injection, schedule: Q01DX009 (oral), vehicle: water): 100 % of control | T/C (dose: 8.0 mg/kg/injection, schedule: Q01DX009 (sc), vehicle: water): 100 % of control | T/C (dose: 8.0 mg/kg/injection, schedule: Q04DX003 (ip), vehicle: water): 119 % of control | T/C (dose: 16.0 mg/kg/injection, schedule: Q01DX001 (ip), vehicle: water): 107 % of control | T/C (dose: 16.0 mg/kg/injection, schedule: Q01DX009 (oral), vehicle: water): 101 % of control | T/C (dose: 16.0 mg/kg/injection, schedule: Q01DX009 (sc), vehicle: water): 97 % of control | T/C (dose: 16.0 mg/kg/injection, schedule: Q04DX003 (ip), vehicle: water): 122 % of control | T/C (dose: 16.0 mg/kg/injection, schedule: Q08DX002 (ip), vehicle: water): 109 % of control | T/C (dose: 25.0 mg/kg/injection, schedule: Q01DX009 (ip), vehicle: other): 158 % of control | T/C (dose: 32.0 mg/kg/injection, schedule: Q01DX001 (ip), vehicle: water): 104 % of control | T/C (dose: 32.0 mg/kg/injection, schedule: Q01DX009 (ip), vehicle: saline): 90 % of control | T/C (dose: 32.0 mg/kg/injection, schedule: Q01DX009 (oral), vehicle: water): 101 % of control | T/C (dose: 32.0 mg/kg/injection, schedule: Q01DX009 (sc), vehicle: water): 88 % of control | T/C (dose: 32.0 mg/kg/injection, schedule: Q04DX003 (ip), vehicle: water): 124 % of control | T/C (dose: 32.0 mg/kg/injection, schedule: Q08DX002 (ip), vehicle: water): 119 % of control | T/C (dose: 37.5 mg/kg/injection, schedule: Q01DX009 (ip), vehicle: saline with Tween-80): 118 % of control | T/C (dose: 44.0 mg/kg/injection, schedule: Q04DX003 (ip), vehicle: saline with Tween-80): 154 % of control | T/C (dose: 64.0 mg/kg/injection, schedule: Q01DX001 (ip), vehicle: water): 106 % of control | T/C (dose: 64.0 mg/kg/injection, schedule: Q01DX009 (oral), vehicle: water): 109 % of control | T/C (dose: 64.0 mg/kg/injection, schedule: Q04DX003 (ip), vehicle: water): 106 % of control | T/C (dose: 64.0 mg/kg/injection, schedule: Q08DX002 (ip), vehicle: water): 109 % of control | T/C (dose: 66.0 mg/kg/injection, schedule: Q04DX003 (ip), vehicle: saline with Tween-80): 154 % of control and 181 % of control | T/C (dose: 75.0 mg/kg/injection, schedule: Q01DX009 (ip), vehicle: saline with Tween-80): 86 % of control | T/C (dose: 150.0 mg/kg/injection, schedule: Q04DX003 (ip), vehicle: saline with Tween-80): 90 % of control

C[C@@]12CCC[C@@H]1OC(=O)C2
T/C [1]: 98 % of control

CC(=O)Oc1cc2c(cc1Cc1ccc3c(c1)OCO3)OCO2
T/C (dose: 50.0 mg/kg/injection, schedule: Q01DX005 (ip), vehicle: Klucel (hydroxypropylcellulose) (HPC)): 101 % of control | T/C (dose: 100.0 mg/kg/injection, schedule: Q01DX005 (ip), vehicle: Klucel (hydroxypropylcellulose) (HPC)): 95 % of control | T/C (dose: 200.0 mg/kg/injection, schedule: Q01DX005 (ip), vehicle: Klucel (hydroxypropylcellulose) (HPC)): 100 % of control

CCN(c1ccccc1)c1cc(=O)nc2ccccn12
T/C (dose: 60.0 mg/kg/injection, schedule: Q01DX005 (ip), vehicle: saline): 107 % of control | T/C (dose: 120.0 mg/kg/injection, schedule: Q01DX005 (ip), vehicle: saline): 105 % of control | T/C (dose: 240.0 mg/kg/injection, schedule: Q01DX005 (ip), vehicle: saline): 104 % of control

CN(c1ccccc1)c1c(Cl)c(=O)oc2c1ccc1nc(-c3ccccc3)sc12
T/C [1]: 86 % of control | T/C (dose: 100.0 mg/kg/injection, schedule: Q01DX005 (ip), vehicle: saline with Tween-80): 90 % of control | T/C (dose: 200.0 mg/kg/injection, schedule: Q01DX005 (ip), vehicle: saline with Tween-80): 86 % of control

— PubChem BioAssay AID330 (DTP/NCI, 2004)
